The source of these data is PMC7933930, “Development of a small molecule that corrects misfolding and increases secretion of Z α1‐antitrypsin” (EMBO Molecular Medicine, 2021).

As usually defined, the EC50 is the concentration at which the effect is half-maximal. Usually IC50 stands for the concentration at which inhibition is half-maximal. Read a high IC50 as lower potency.

One test concerns the target T1, Muscarinic M2 (Homo sapiens, UniProt P08172).
T1 sequence (P08172 1-466): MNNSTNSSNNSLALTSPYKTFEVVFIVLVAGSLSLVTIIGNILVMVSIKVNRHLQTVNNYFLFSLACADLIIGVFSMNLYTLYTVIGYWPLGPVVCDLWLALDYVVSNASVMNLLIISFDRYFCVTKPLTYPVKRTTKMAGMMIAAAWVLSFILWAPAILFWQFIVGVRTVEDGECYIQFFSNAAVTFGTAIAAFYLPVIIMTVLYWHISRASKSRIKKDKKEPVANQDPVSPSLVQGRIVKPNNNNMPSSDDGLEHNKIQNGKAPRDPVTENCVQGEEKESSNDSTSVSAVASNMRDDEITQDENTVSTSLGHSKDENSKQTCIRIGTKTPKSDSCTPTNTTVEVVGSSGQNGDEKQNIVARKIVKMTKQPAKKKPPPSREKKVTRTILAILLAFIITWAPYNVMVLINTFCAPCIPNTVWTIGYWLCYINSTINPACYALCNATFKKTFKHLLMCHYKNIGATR
As to the kind of experiment: Off‐target panel: Muscarinic M2 (DRX). The format is cell-based. The procedure: (§1) GSK716 selectivity and PK properties were profiled in order to investigate the suitability of GSK716 for progression into in vivo studies and the potential for taking it forward as a clinical candidate for testing in humans. Since GSK716 results in loss of inhibitory activity of α1‐antitrypsin, the effect of the compound was assessed on other closely related serpins. […] Furthermore, there were no off‐target effects in a panel of assays considered predictive of known safety liabilities that precluded further development of GSK716 (Table EV1).

In another test the target is T2, Serotonin 5HT2C (Homo sapiens, UniProt P28335).
T2 sequence (P28335 33-458): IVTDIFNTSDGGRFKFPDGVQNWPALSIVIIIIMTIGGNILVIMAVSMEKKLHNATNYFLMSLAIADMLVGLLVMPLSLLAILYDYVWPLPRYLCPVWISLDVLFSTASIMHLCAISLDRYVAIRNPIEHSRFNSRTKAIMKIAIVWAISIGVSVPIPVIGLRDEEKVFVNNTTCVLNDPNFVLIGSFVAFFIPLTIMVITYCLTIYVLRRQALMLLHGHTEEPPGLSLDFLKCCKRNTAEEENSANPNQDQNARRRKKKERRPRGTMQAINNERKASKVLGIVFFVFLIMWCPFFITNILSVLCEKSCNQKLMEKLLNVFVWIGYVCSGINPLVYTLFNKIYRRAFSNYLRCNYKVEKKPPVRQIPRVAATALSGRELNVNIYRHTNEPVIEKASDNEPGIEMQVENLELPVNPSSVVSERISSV
The experiment in a line: Off‐target panel: Serotonin 5HT2C (DRX). The format is cell-based. The procedure: as §1

The target of the next test is Serotonin 5HT2A (Homo sapiens, UniProt P28223). As to the kind of experiment: Off‐target panel: Serotonin 5HT2A. In kind it is cell-based. The procedure: as §1
For a further test, the target named is Z α1‐antitrypsin (Homo sapiens, UniProt P01009, E366K). As to the kind of experiment: Stoichiometry of inhibition against chymotrypsin, Z α1‐antitrypsin. The format is biochemical. To be noted: Z α1‐antitrypsin pre‐incubated with GSK716 (50µM), read-out: loss of protease inhibitory activity. Also on record: purified from the plasma of Z α1‐antitrypsin homozygotes; from tissue; host or cells: human plasma of Z α1-antitrypsin homozygotes. The method, then: Mutations that interfere with the opening of β‐sheet A or that perturb its interaction with the N‐terminal portion of the reactive centre loop alter the ability of serpins to inhibit target proteases (Hood et al, 1994; Irving et al, 2014). The stoichiometry of inhibition (SI) was determined for M α1‐antitrypsin and Z α1‐antitrypsin in discontinuous experiments against a model target protease, chymotrypsin. The pre‐incubation of both variants with GSK716 led to a > 98% loss of protease inhibitory activity (Fig 5A).
Figure 5 The effect of GSK716 on serpin inhibitory activity • α1‐Antitrypsin was incubated at varying molar ratios with the model protease bovine α‐chymotrypsin, and the residual protease activity determined. […] The position of covalent α1‐antitrypsin‐chymotrypsin complex (cpx), native (nat) and cleaved (clv) is shown. • The inhibitory activity of α1‐antichymotrypsin against chymotrypsin (ach + chym), neuroserpin against trypsin (neus + tryp), and antithrombin against thrombin (atiii + thrombin) was determined in the presence and absence of GSK716. […]
The native state stability of α1‐antitrypsin on addition of compounds was investigated by thermal denaturation in the presence of a 5X concentration of SYPRO Orange dye solution (Life Technologies) (Nettleship et al, 2008). Resistance to heat‐induced polymerisation was determined using an end‐point constant‐temperature assay. […]

Test [1] deals with polymers of Z α1‐antitrypsin (Homo sapiens, UniProt P01009, E366K). The experiment in a line: Binding to Z α1‐antitrypsin polymers (fluorescence polarisation). The method, then:
Figure 1 Characteristics of the lead series of chiral hydroxy‐carboxamides identified from the ELT screen • The structure of GSK425, identified from the ELT screen, and the derived compound GSK716 obtained through a structure‐based design pipeline. • The degree of polymerisation of Z α1‐antitrypsin after 72 h at 37°C, as determined by an end‐point immunoassay using the 2C1 monoclonal antibody, in varying concentrations of compound (shown in panel A). […] Data presented as mean ± SD. • The compound bound to monomeric but not polymeric Z α1‐antitrypsin (Z α1‐AT) as reported by fluorescence polarisation of an Alexa‐488‐labelled variant of GSK716. • Representative curves reporting the interaction of different concentrations of GSK716 with Z α1‐antitrypsin based on changes in intrinsic tryptophan fluorescence.
Kinetic parameters of GSK716 binding to M, Z, S (Glu264Val) and Baghdad (Ala336Pro) (Haq et al, 2016) α1‐antitrypsin were measured by detecting intrinsic tryptophan fluorescence of the protein (excitation at 280 nm and detection of emission at 320 nm) on a stopped flow apparatus (Applied Photophysics) (Kim & Yu, 1996; Dafforn et al, 1999). […]
On the technique in general: Polarisation of emitted light reports the rotation of a fluorescent probe.

Sequence of Serotonin 5HT2A (P28223 whole entry): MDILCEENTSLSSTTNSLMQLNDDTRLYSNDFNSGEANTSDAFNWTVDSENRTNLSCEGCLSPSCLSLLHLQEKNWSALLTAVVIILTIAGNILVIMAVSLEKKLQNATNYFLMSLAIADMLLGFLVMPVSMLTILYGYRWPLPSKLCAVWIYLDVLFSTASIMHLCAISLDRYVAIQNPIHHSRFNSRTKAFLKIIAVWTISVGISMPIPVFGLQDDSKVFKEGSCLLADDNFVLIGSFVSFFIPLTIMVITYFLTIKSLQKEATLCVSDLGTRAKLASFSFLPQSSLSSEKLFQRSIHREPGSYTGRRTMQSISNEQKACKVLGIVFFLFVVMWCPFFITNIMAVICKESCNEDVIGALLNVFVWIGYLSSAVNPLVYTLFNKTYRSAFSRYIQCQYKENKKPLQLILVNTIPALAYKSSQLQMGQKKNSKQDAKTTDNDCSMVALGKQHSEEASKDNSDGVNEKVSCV
Sequence of polymers of Z α1‐antitrypsin (P01009 25-418 E366K): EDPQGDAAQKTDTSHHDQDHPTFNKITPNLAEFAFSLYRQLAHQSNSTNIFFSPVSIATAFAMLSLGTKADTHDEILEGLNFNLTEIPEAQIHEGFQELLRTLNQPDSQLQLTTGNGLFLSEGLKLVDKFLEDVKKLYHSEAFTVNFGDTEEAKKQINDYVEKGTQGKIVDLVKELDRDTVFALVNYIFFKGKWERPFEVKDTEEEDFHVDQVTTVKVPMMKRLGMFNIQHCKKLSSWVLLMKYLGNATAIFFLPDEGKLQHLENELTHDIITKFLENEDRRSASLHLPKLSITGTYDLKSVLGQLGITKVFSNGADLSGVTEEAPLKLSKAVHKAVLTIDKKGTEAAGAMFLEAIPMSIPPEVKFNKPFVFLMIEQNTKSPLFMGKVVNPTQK
Sequence of Z α1‐antitrypsin (P01009 25-418 E366K): as above

`CCC[C@@H](NC(=O)c1cccc2c1CC(=O)N2)[C@@H](O)c1cccc(F)c1C` [GSK716]: the values for the EC50 at Muscarinic M2, on Serotonin 5HT2C and on Serotonin 5HT2A were 5.01 µM, greater than 100 µM and greater than 25.1 µM, respectively. The IC50 is greater than 50.1 µM on Muscarinic M2, 50.1 µM at Serotonin 5HT2C and greater than 25.1 µM against Serotonin 5HT2A. Moreover, the inhibition at 50 µM on Z α1‐antitrypsin is greater than 98%. Also, the “binding to polymers of Z α1‐antitrypsin” value in test [1] is listed as “lack of binding”.
